According to ChEMBL document CHEMBL1201862, “PubChem BioAssay data set” (2004):
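Growth conditions: 96-well plates. Treatment: test compound, 48 hours, 5 concentrations. Analysis: linear interpolation between bracketing concentrations; unreached endpoints set to highest concentration. GI50: concentration for 50% inhibition of growth.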 Active and inactive are the calls of the source. Cut-off read from the data, not from the text of the source: active = GI50 up to about 1.1 µM and inactive = higher.

Columns and labels:
Experiment in all cases: NCI-60 cell line screen, 48 h
A549 = system: A549
COLO 205 = system: COLO 205
EKVX = system: EKVX
HCC 2998 = system: HCC 2998
HOP-62 = system: HOP-62
HT-29 = system: HT-29
NCI-H226 = system: NCI-H226
NCI-H460 = system: NCI-H460
OVCAR-5 = system: OVCAR-5
RXF 393 = system: RXF 393
SK-MEL-2 = system: SK-MEL-2
SK-MEL-5 = system: SK-MEL-5
SNB-19 = system: SNB-19
SW-620 = system: SW-620
U-251 = system: U-251
UACC-257 = system: UACC-257
MDA-MB-231 = system: MDA-MB-231
PC-3 = system: PC-3

Measured: GI50

COC(=O)CCC(=O)C(CC(=O)OC)C(=O)CCC(=O)NCCc1ccccc1 (stereo unspecified)
inactive: A549 > 100 µM | COLO 205 > 100 µM | EKVX > 100 µM | HCC 2998 > 100 µM | HOP-62 > 100 µM | HT-29 > 100 µM | NCI-H226 > 100 µM | NCI-H460 > 100 µM | OVCAR-5 > 100 µM | RXF 393 > 100 µM | SK-MEL-2 > 100 µM | SK-MEL-5 > 100 µM | SNB-19 > 100 µM | SW-620 > 100 µM | U-251 > 100 µM | UACC-257 > 100 µM

Cc1ccc(N(C(=O)Nc2ccccc2)C2=NCC(C)S2)cc1C (stereo unspecified)
inactive: A549 29 µM | COLO 205 19.4 µM | EKVX 17.9 µM | HCC 2998 > 10 µM | HOP-62 53.3 µM | HT-29 18.2 µM | MDA-MB-231 18.7 µM | NCI-H460 18 µM | OVCAR-5 23.1 µM | PC-3 24.4 µM | SK-MEL-2 17.4 µM | SK-MEL-5 17 µM | SNB-19 33.3 µM | SW-620 24.7 µM | U-251 19.3 µM | UACC-257 > 10 µM

N=C(CC(=O)Nc1ccc(Cl)cc1)Nc1ccccc1
inactive: A549 > 100 µM | COLO 205 > 100 µM | EKVX > 100 µM | HCC 2998 > 100 µM | HOP-62 > 100 µM | HT-29 > 100 µM | NCI-H226 > 100 µM | NCI-H460 > 100 µM | OVCAR-5 > 100 µM | RXF 393 > 100 µM | SK-MEL-2 > 100 µM | SK-MEL-5 > 100 µM | SNB-19 > 100 µM | SW-620 > 100 µM | U-251 > 100 µM | UACC-257 > 100 µM

O=P1(c2ccccc2)CCCCC1
inactive: A549 > 100 µM | COLO 205 > 100 µM | EKVX > 100 µM | HCC 2998 > 100 µM | HOP-62 > 100 µM | HT-29 > 100 µM | NCI-H226 > 100 µM | NCI-H460 > 100 µM | OVCAR-5 > 100 µM | RXF 393 > 100 µM | SK-MEL-2 > 100 µM | SK-MEL-5 > 100 µM | SNB-19 > 100 µM | SW-620 > 10 µM | U-251 > 100 µM | UACC-257 > 100 µM

COc1ccc(NC(=O)C2C(=O)N(c3ccc(OC)cc3)C(=O)/C2=N\NC(N)=O)cc1 (stereo unspecified)
inactive: COLO 205 > 100 µM | EKVX 40.6 µM | HCC 2998 30.9 µM | HOP-62 16.3 µM | HT-29 58.6 µM | NCI-H226 21.8 µM | NCI-H460 38.9 µM | OVCAR-5 97.5 µM | RXF 393 22.5 µM | SK-MEL-2 40.9 µM | SK-MEL-5 17.8 µM | SNB-19 41.1 µM | SW-620 > 100 µM | U-251 18.5 µM | UACC-257 46.9 µM

CS(=O)(=O)NNS(=O)(=O)c1ccc(Br)cc1
inactive: A549 > 100 µM | COLO 205 > 100 µM | EKVX > 100 µM | HCC 2998 > 100 µM | HOP-62 > 100 µM | HT-29 > 100 µM | NCI-H226 > 100 µM | NCI-H460 > 100 µM | OVCAR-5 > 100 µM | RXF 393 > 100 µM | SK-MEL-2 > 100 µM | SK-MEL-5 > 100 µM | SNB-19 > 100 µM | SW-620 > 100 µM | U-251 > 100 µM | UACC-257 > 100 µM

CCOC(=O)c1ccc(-n2c(SCC)nc3sc(C)c(C)c3c2=O)cc1
inactive: A549 > 100 µM | COLO 205 > 100 µM | EKVX > 100 µM | HCC 2998 > 100 µM | HOP-62 > 100 µM | HT-29 > 100 µM | NCI-H226 > 100 µM | NCI-H460 > 100 µM | OVCAR-5 > 100 µM | RXF 393 94.8 µM | SK-MEL-2 > 100 µM | SK-MEL-5 > 100 µM | SNB-19 > 100 µM | SW-620 > 100 µM | U-251 > 100 µM | UACC-257 > 100 µM
